Bounds are passed on as bounds.

The target in this assay is T1, human cannabis CB1 receptor (Homo sapiens, UniProt P21554).
T1 construct: expressed in transfected cells; host or cells: human embryonic kidney (HEK) cells, Semliki Forest Virus system, membrane preparation
In words: Affinity for cannabinoid CB1 receptors, [3H]-CP-55,940 radioligand binding on HEK cell membranes. Conditions: affinity for the CB1 receptor. The procedure: The affinity of the compounds of the invention for cannabinoid CB1 receptors was determined using membrane preparations of human embryonic kidney (HEK) cells in which the human cannabis CB1 receptor is transiently transfected using the Semliki Forest Virus system in conjunction with [3H]-CP-55,940 as radioligand. After incubation of a freshly prepared cell membrane preparation with the [3H]-ligand, with or without addition of compounds of the invention, separation of bound and free ligand was performed by filtration over glassfiber filters. Radioactivity on the filter was measured by liquid scintillation counting.
The compounds of formula (I) show an excellent affinity for the CB1 receptor, determined with the experimental conditions described in Devane et. al. Mol. Pharmacol. 34 (1988) 605-613.

T1 sequence (P21554 whole entry): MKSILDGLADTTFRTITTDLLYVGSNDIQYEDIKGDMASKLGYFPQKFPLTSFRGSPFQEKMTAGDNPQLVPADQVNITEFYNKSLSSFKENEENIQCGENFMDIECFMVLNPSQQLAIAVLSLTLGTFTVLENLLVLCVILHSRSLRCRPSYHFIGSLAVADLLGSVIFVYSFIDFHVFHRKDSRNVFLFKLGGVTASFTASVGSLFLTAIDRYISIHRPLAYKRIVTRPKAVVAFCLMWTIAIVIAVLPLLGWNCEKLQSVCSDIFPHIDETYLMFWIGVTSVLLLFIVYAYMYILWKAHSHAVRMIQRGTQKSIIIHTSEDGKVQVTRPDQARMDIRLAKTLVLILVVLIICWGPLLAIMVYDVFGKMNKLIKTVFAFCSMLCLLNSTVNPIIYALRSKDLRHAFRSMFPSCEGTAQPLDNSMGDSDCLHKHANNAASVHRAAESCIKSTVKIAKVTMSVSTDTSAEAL

The term IC50 denotes the point on the concentration scale where inhibition reaches its midpoint. Read a high IC50 as a need for much substance. For the compound `Cc1c(C(=O)NC2CCCCC2)cc(-c2cc(C(F)(F)F)ccc2F)n1C[C@@H]1CCCC[C@H]1O` (racemic) [Example 282, 5-(2-Fluoro-5-trifluoromethyl-phenyl)-1-((1SR,2RS)-2-hydroxy-cyclohexylmethyl)-2-methyl-1H-pyrrole-3-carboxylic acid cyclohexylamide], the IC50 is less than 2000 nM.

In the case of `Cc1c(C(=O)NC2CCCCC2)cc(-c2cc(C(F)(F)F)ccc2F)n1C[C@H]1CCCC[C@H]1O` (racemic) [Example 283, 5-(2-Fluoro-5-trifluoromethyl-phenyl)-1-((1RS,2RS)-2-hydroxy-cyclohexylmethyl)-2-methyl-1H-pyrrole-3-carboxylic acid cyclohexylamide], the IC50 is less than 2000 nM.

`Cc1c(C(=O)N[C@@H]2CCCC[C@H]2O)cc(-c2cc(C(F)(F)F)ccc2F)n1CC1CCCCC1O` (mixture of isomers) [Example 286] showed an IC50 of less than 2000 nM.

`Cc1c(C(=O)NC2CCCCC2)cc(-c2cc(C(F)(F)F)ccc2Cl)n1C[C@H]1CCCC[C@H]1O` (racemic) [Example 294, 5-(2-Chloro-5-trifluoromethyl-phenyl)-1-((1RS,2RS)-2-hydroxy-cyclohexylmethyl)-2-methyl-1H-pyrrole-3-carboxylic acid cyclohexylamide] came in with an IC50 of less than 2000 nM.

`CCCCNC(=O)c1cc(-c2ccc(N3CCCC3)cc2)n(CC2CCCCC2)c1C` [Example 19, Cyclohexylmethyl-2-methyl-5-(4-pyrrolidin-1-yl-phenyl)-1H-pyrrole-3-carboxylic acid butylamide] showed an IC50 of less than 2000 nM.

With `CCCCNC(=O)c1cc(-c2cc(OC)ccc2OC)n(CC2CCCCC2)c1C` [Example 21, Cyclohexylmethyl-5-(2,5-dimethoxy-phenyl)-2-methyl-1H-pyrrole-3-carboxylic acid butylamide], the IC50 was less than 2000 nM.

For the compound `CCCCNC(=O)c1cc(-c2cc(C(F)(F)F)cc(C(F)(F)F)c2)n(CC2CCCCC2)c1C` [Example 41, 5-(3,5-Bis-trifluoromethyl-phenyl)-1-cyclohexylmethyl-2-methyl-1H-pyrrole-3-carboxylic acid butylamide], the IC50 is less than 2000 nM.

In the case of `CCCCNC(=O)c1nc(-c2ccccc2OC)n(CC2CCCCC2)c1C` [Example 52, Cyclohexylmethyl-2-(2-methoxy-phenyl)-5-methyl-1H-imidazole-4-carboxylic acid butylamide], the IC50 was less than 2000 nM.

In turn, `COc1ccccc1-c1nc(C(=O)NN2CCCCC2)c(C)n1CC1CCCCC1` [Example 54, Cyclohexylmethyl-2-(2-methoxy-phenyl)-5-methyl-1H-imidazole-4-carboxylic acid piperidin-1-ylamide] gave an IC50 of less than 2000 nM.

`COc1ccc(Cl)cc1-c1cc(C(=O)NC2CCCCC2)c(C)n1CC1CCCCC1` [Example 89, 5-(5-Chloro-2-methoxy-phenyl)-1-cyclohexylmethyl-2-methyl-1H-pyrrole-3-carboxylic acid cyclohexylamide]: the IC50 was less than 2000 nM.

Consider `COc1cc(C)c(Cl)cc1-c1cc(C(=O)NC2CCCCC2)c(C)n1CC1CCCCC1` [Example 91, 5-(5-Chloro-2-methoxy-4-methyl-phenyl)-1-cyclohexylmethyl-2-methyl-1H-pyrrole-3-carboxylic acid cyclohexylamide], for which the IC50 was less than 2000 nM.

As for `COc1ccc(F)cc1-c1cc(C(=O)NC2CCCCC2)c(C)n1CC1CC1` [Example 194, Cyclopropylmethyl-5-(5-fluoro-2-methoxy-phenyl)-2-methyl-1H-pyrrole-3-carboxylic acid cyclohexylamide], the IC50 was less than 2000 nM.

`Cc1c(C(=O)NN2CCCCC2)cc(-c2cc(C(F)(F)F)ccc2Cl)n1CC1CCCCC1` [Example 264, 5-(2-Chloro-5-trifluoromethyl-phenyl)-1-cyclohexylmethyl-2-methyl-1H-pyrrole-3-carboxylic acid piperidin-1-ylamide] gave an IC50 of less than 2000 nM.

Take `Cc1c(C(=O)N[C@@H]2CCCC[C@H]2O)cc(-c2cc(C(F)(F)F)ccc2C(F)(F)F)n1CCC1CC1` [Example 290, 5-(2,5-Bis-trifluoromethyl-phenyl)-1-(2-cyclopropyl-ethyl)-2-methyl-1H-pyrrole-3-carboxylic acid ((1R,2R)-2-hydroxy-cyclohexyl)-amide]: the IC50 was less than 2000 nM.

`Cc1ccc(C(F)(F)F)cc1-c1cc(C(=O)N[C@@H]2CCCC[C@H]2O)c(C)n1CC1CCCCC1` [Example 301, Cyclohexylmethyl-2-methyl-5-(2-methyl-5-trifluoromethyl-phenyl)-1H-pyrrole-3-carboxylic acid ((1R,2R)-2-hydroxy-cyclohexyl)-amide] registered an IC50 of less than 2000 nM.

The values are drawn from patent US7579369B2, “CB 1 receptor inverse agonists” (Hoffmann-La Roche Inc., priority 2003, dated 2009).
